# Patent US20050069907A1, “Methods for using double-mutant RNA polymerases with reduced discrimination between non-canonical and canonical nucleoside triphosphates” (priority 2002, published 2005)
# Tested on: supercoiled pT75
# Assay: Transcript elongation rate in 3 rNTP + 1 dNTP reactions
# Format: biochemical
# Procedure: Elongation rate determinations were carried out as described (Golomb and Chamberlin, 1974) with some variations (Bonner, et al., 1994).
# Elongation rates of Y639F in reactions containing a single dNTP: Elongation rates for Y639F in reactions with 4 rNTPs or 1 dNTP and 3 rNTPs were determined by analyzing aliquots, taken at 10 second intervals, from transcription reactions initiated on supercoiled PT75 by adding NTPs to otherwise complete reaction mixes (FIG. 6).
# The template was supercoiled pT75 at 5×10^-7 M. Y639F polymerase was used at a concentration of 10^-6 M. Reactions contained the indicated NTPs. Labeling was with α-P32-rATP (lane e) or α-P32-rGTP (other lanes). After initiation of the reactions aliquots were taken at 10 second intervals and analyzed on 1% agarose denaturing-formaldehyde gels. […] The bars indicate the positions of λ DNA markers.
# When analyzed on denaturing agarose gels (FIG. 6) the heterogeneously sized transcripts from these reactions are resolved as a smear with the trailing edge of the smear corresponding to transcripts initiated at t=0 and from which the maximal transcript elongation rate can be determined (Golomb and Chamberlin, 1974; Bonner, et al., 1994). The following elongation rate reductions (relative to a ‘4 rNTP’ reaction) were obtained for reactions containing a 3 rNTPS and 1 dNTP:dATP, ˜3-fold; dUTP, ˜2-fold; dGTP ˜1.5-fold; dCTP, 1-1.5-fold. Because of its poor activity in reactions with dNTPs it was difficult to determine the corresponding elongation rate reductions for the W.T. enzyme.
substance,measurement,setting,value
Y639F: T7 RNAP with wild-type tyrosine at position 639 substituted by phenylalanine,Elongation rate reduction relative to 4 rNTP reaction,3 rNTPs and dATP,~3 fold
same,Elongation rate reduction relative to 4 rNTP reaction,3 rNTPs and dCTP,1-1.5 fold
same,Elongation rate reduction relative to 4 rNTP reaction,3 rNTPs and dGTP,~1.5 fold
same,Elongation rate reduction relative to 4 rNTP reaction,3 rNTPs and dUTP,~2 fold
